In assay [1] the test system is human platelet-rich plasma. The assay is described as follows: Test 4: Collagen-induced platelet aggregation in human platelet-rich plasma. It is filed as cell-based. The settings on record: collagen + 30 μM compound, 37° C., 20 min incubation, n=6; collagen alone 92±2.7%. The protocol:
The action of compounds of formula (I) on collagen-induced platelet aggregation was investigated in human platelet-rich plasma, which is described, for example, in G.V. Born et al., Nature (1962).
Human platelet-rich plasma (PRP) from 6 blood donors was incubated with the test compound at 37° C. for 20 min, then activated with collagen, and the maximal aggregation of the platelets was quantified in % via light transmission.

Assay [2] has as its system isolated, working rat hearts. The assay is described as follows: Test 3: Isolated, working rat hearts (Langendorff), coronary flow. As to conditions: 10^−6 mol/l; for Coronary flow: treated hearts, n=4. The arrangement: species or system Wistar-Kyoto rats. An excerpt: Pharmacol. 8 (Suppl. 10) (1986) S91-S99.
Test 3: Isolated, working rat hearts
Isolated hearts of Wistar-Kyoto rats (280-300 g body weight) are perfused with a constant perfusion pressure of 60 mmHg according to the method of Langendorff using an oxygen-saturated (95% O2, 5% CO2), nonrecirculating, modified Krebs-Henseleit buffer solution (118 mmol/l of NaCl, 4.7 mmol/l of KCl, 2.5 mmol/l of CaCl2, 1.6 mmol/l of MgSO4, 24.9 mmol/l of NaHCO3, 1.2 mmol/l of KH2PO4, 5.5 mmol/l of glucose, and 2.0 mmol/l of sodium pyruvate). For the measurement of the coronary flow, a catheter having an electromagnetic measuring head placed in the pulmonary artery was used. After a 15-minute equilibration period, the heart is converted into the working mode, in which a preload of 15 mmHg and an afterload of 60 mmHg is set. The working load of the heart remains constant during the entire test time of 90 minutes. Flow and pressure signals for the analysis are recorded by means of a PLUGSYS measuring system (Hugo Sachs Elektronik). The analysis of the data is carried out at a collection frequency of 500 Hz, averaged every 2 seconds, using the software Aquire Plus VI.21f (PO-NE-MAH).

For the molecule `CCCCOC(=O)NS(=O)(=O)c1sc(CC(C)C)cc1-c1ccc(Cn2c(-c3ccccc3)nc(OC)c2C=O)cc1` [Example 2, 5-Formyl-4-methoxy-2-phenyl-1-[[4-[2-(n-butyloxycarbonylsulfonamido)-5-isobutyl-3-thienyl]phenyl]methyl]imidazole], in assay [1], the platelet aggregation is listed as 52±5.7 % aggregation. For the same molecule, the heart rate entry in assay [2] (during the entire experiment) is “unchanged”. The Coronary flow came out at 8.92 ± 0.68 mL/min in assay [2] (time 0 min), 11.29 ± 0.90 mL/min in assay [2] (time 5 min), 12.17 ± 0.74 mL/min in assay [2] (time 10 min) and 12.22 ± 0.10 mL/min in assay [2] (time 15 min).

The record behind these values is patent publication US6429222B2, “1-(p-thienylbenzyl)imidazoles as agonists of angiotensin (1-7) receptors, processes for their preparation, their use, and pharmaceutical preparations comprising them” (priority 1999, dated 2002).
